Measured values as given in patent publication US20230167127A1, “COMPOUNDS AND THEIR USE IN THE TREATMENT OF BACTERIAL INFECTION” (Hoffmann-La Roche Inc., priority 2020, published 2023).
Like-named read-outs stand apart in the source and are kept apart here.

System: Escherichia coli ATCC 25922
Assay: 50% growth inhibitory concentration (IC50) determination, Iso-Sensitest broth dilution
Type: cell-based
Conditions: strain Escherichia coli ATCC 25922, 10-point broth dilution, optical density at 600 nm over 16 h, read-out: Escherichia coli growth inhibition IC50
Outline: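 10-point twofold Iso-Sensitest broth dilution (e.g. 50 to 0.097 μM final) with DMSO stocks, incubated at 35±2° C. Growth followed by OD 600 nm every 20 min over 16 h; IC50 derived from growth inhibition during logarithmic phase.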

[1] = Escherichia coli, ATCC25922, 16 h

Structure (SMILES)	IC50 [1] [nM]	IC50 [nM]
Cc1c(OCC2CCN2)ncc2c1CC(CNCCC1CN(c3ccc4c(n3)NC(=O)CO4)C(=O)O1)C2 (stereo in doubt) [Example 219, 6-[5-[2-[[4-methyl-3-[[(2R)-azetidin-2-yl]methoxy]-6,7-dihydro-5H-cyclopenta[c]pyridin-6-yl]methylamino]ethyl]-2-oxo-1,3-oxazolidin-3-yl]-4H-pyrido[3,2-b][1,4]oxazin-3-one]	378	
NC1CC(NC2Cc3cccc(F)c3C2)CCC12CN(c1ccc3c(n1)NC(=O)CO3)C(=O)O2 (racemic) [Example 167, 6-[rac-5,6-cis-5,8-trans-6-amino-8-[(4-fluoro-2,3-dihydro-1H-inden-2-yl)amino]-2-oxo-1-oxa-3-azaspiro[4.5]decan-3-yl]-4H-pyrido[3,2-b][1,4]oxazin-3-one; 2,2,2-trifluoroacetic acid]	190	
O=C1COc2ncc(N3CC(CCNCC4Cc5cc(OCCn6ccnn6)cc(F)c5C4)OC3=O)nc2N1 (stereo not shown) [Example 344, 6-[5-[2-[[4-fluoro-6-[2-(triazol-1-yl)ethoxy]-2,3-dihydro-1H-inden-2-yl]methylamino]ethyl]-2-oxo-1,3-oxazolidin-3-yl]-4H-pyrazino[2,3-b][1,4]oxazin-3-one; formic acid]	202	
NC(=O)COc1cc(F)c2c(c1)CC(CNCC[C@@H]1CN(c3cnc4c(n3)NC(=O)CO4)C(=O)O1)C2 (single isomer, unassigned; isomer b) [Example 382]		158
N#Cc1cccc2c1CC(NC1CCC3(CC1)CN(c1ccc4c(n1)NC(=O)CO4)C(=O)O3)C2 (single isomer, unassigned; isomer a) [Example 39, 2-[[2-oxo-3-(3-oxo-4H-pyrido[3,2-b][1,4]oxazin-6-yl)-1-oxa-3-azaspiro[4.5]decan-8-yl]amino]-2,3-dihydro-1H-indene-4-carbonitrile, Isomer A; formic acid]		737
N[C@H](CO)COc1ncc2c(c1Cl)CC(CNCCC1CN(c3ccc4c(n3)NC(=O)CO4)C(=O)O1)C2 (stereo partly drawn) [Example 237, 6-[5-[2-[[4-Chloro-3-[(2R)-2-amino-3-hydroxypropoxy]-6,7-dihydro-5H-cyclopenta[c]pyridin-6-yl]methylamino]ethyl]-2-oxo-1,3-oxazolidin-3-yl]-4H-pyrido[3,2-b][1,4]oxazin-3-one]	140	
Cc1ncc(F)c2c1CC(CNCCC1(CN)CN(c3ccc4c(n3)NC(=O)CO4)C(=O)O1)C2 (stereo not shown) [Example 242, 6-[5-(Aminomethyl)-5-[2-[(4-fluoro-1-methyl-6,7-dihydro-5H-cyclopenta[c]pyridin-6-yl)methylamino]ethyl]-2-oxo-1,3-oxazolidin-3-yl]-4H-pyrido[3,2-b][1,4]oxazin-3-one]	778	
NC1(COc2cc(F)c3c(c2)CC(CNCCC2CN(c4ccc5c(n4)NC(=O)CO5)C(=O)O2)C3)CC1 (stereo not shown) [Example 160, 6-[5-[2-[[6-[(1-aminocyclopropyl)methoxy]-4-fluoro-2,3-dihydro-1H-inden-2-yl]methylamino]ethyl]-2-oxo-1,3-oxazolidin-3-yl]-4H-pyrido[3,2-b][1,4]oxazin-3-one]	< 97.7	
NC1CC(NCC2Cc3ccnc(Cl)c3C2)CCC12CN(c1ccc3c(n1)NC(=O)CO3)C(=O)O2 (racemic) [Example 206, 6-[rac-5,6-cis-5,8-trans-6-amino-8-[(1-chloro-6,7-dihydro-5H-cyclopenta[c]pyridin-6-yl)methylamino]-2-oxo-1-oxa-3-azaspiro[4.5]decan-3-yl]-4H-pyrido[3,2-b][1,4]oxazin-3-one]	1160	
Cc1ncc(F)c2c1CC(NCCCc1cn(-c3cnc4c(n3)NC(=O)CO4)c(=O)o1)C2 (single isomer, unassigned; enantiomer a) [Example 367, 6-[5-[3-[(4-Fluoro-1-methyl-6,7-dihydro-5H-cyclopenta[c]pyridin-6-yl)amino]propyl]-2-oxo-1,3-oxazol-3-yl]-4H-pyrazino[2,3-b][1,4]oxazin-3-one, Enantiomer A]	< 97.7	
O=C1COc2ccc(N3CC(CCCNC4Cc5cccc(F)c5C4)OC3=O)nc2N1 (stereo not shown) [Example 8, 6-[5-[3-[(4-fluoro-2,3-dihydro-1H-inden-2-yl)amino]propyl]-2-oxo-1,3-oxazolidin-3-yl]-4H-pyrido[3,2-b][1,4]oxazin-3-one; formic acid]	167	

The remaining lines, values ahead:

IC50 [1] [nM]	IC50 [nM]	Structure (SMILES)
< 97.7		Cc1nonc1COc1cc(C#N)c2c(c1)CC(CNCCC1CN(c3cnc4c(n3)NC(=O)CO4)C(=O)O1)C2 (stereo not shown) [Example 392, 6-[(4-methyl-1,2,5-oxadiazol-3-yl)methoxy]-2-[[2-[2-oxo-3-(3-oxo-4H-pyrazino[2,3-b][1,4]oxazin-6-yl)-1,3-oxazolidin-5-yl]ethylamino]methyl]-2,3-dihydro-1H-indene-4-carbonitrile]
< 97.7		Cc1ncc2c(c1F)CC(CNCC[C@H]1CN(c3cnc4c(n3)NC(=O)CO4)C(=O)O1)C2 (stereo partly drawn) [Example 338, 6-[(5S)-5-[2-[(4-fluoro-3-methyl-6,7-dihydro-5H-cyclopenta[c]pyridin-6-yl)methylamino]ethyl]-2-oxo-1,3-oxazolidin-3-yl]-4H-pyrazino[2,3-b][1,4]oxazin-3-one]
< 97.7		Cc1nccc2c1CC(CNCCC1CN(c3cnc4c(n3)NC(=O)CO4)C(=O)O1)C2 (stereo not shown) [Example 279, 6-[5-[2-[(1-methyl-6,7-dihydro-5H-cyclopenta[c]pyridin-6-yl)methylamino]ethyl]-2-oxo-1,3-oxazolidin-3-yl]-4H-pyrazino [2,3-b][1,4]oxazin-3-one; formic acid]
< 97.7		O=C1COc2ccc(N3CC(CCNCC4Cc5cncc(F)c5C4)OC3=O)nc2N1 (stereo not shown) [Example 288, 6-[5-[2-[(4-fluoro-6,7-dihydro-5H-cyclopenta[c]pyridin-6-yl)methylamino]ethyl]-2-oxo-1,3-oxazolidin-3-yl]-4H-pyrido[3,2-b][1,4]oxazin-3-one]
< 97.7		Cc1ncc(C#N)c2c1CC(NCCCc1cn(-c3cnc4c(n3)NC(=O)CO4)c(=O)o1)C2 (single isomer, unassigned; enantiomer a) [Example 321, 1-Methyl-6-[3-[2-oxo-3-(3-oxo-4H-pyrazino[2,3-b][1,4]oxazin-6-yl)-1,3-oxazol-5-yl]propylamino]-6,7-dihydro-5H-cyclopenta[c]pyridine-4-carbonitrile, Enantiomer A]
< 97.7		O=C1COc2ccc(N3CC(CCNCC4Cc5c(Cl)cccc5C4O)OC3=O)nc2N1 (racemic) [Example 230, 6-[2-Oxo-5-[2-[[rac-1,2-trans-4-chloro-1-hydroxy-2,3-dihydro-1H-inden-2-yl]methylamino]ethyl]-1,3-oxazolidin-3-yl]-4H-pyrido[3,2-b][1,4]oxazin-3-one]
< 97.7		NC1c2cccc(Cl)c2CC1NCCCC1CN(c2ccc3c(n2)NC(=O)CO3)C(=O)O1 (racemic) [Example 244, 6-[2-oxo-5-[3-[[rac-1,2-trans-1-amino-4-chloro-2,3-dihydro-1H-inden-2-yl]amino]propyl]-1,3-oxazolidin-3-yl]-4H-pyrido[3,2-b][1,4]oxazin-3-one]
< 97.7		Cc1ncc(F)c2c1CC(CN(C)CCC1CN(c3cnc4c(n3)NC(=O)CO4)C(=O)O1)C2 (stereo not shown) [Example 376, 6-[5-[2-[(4-Fluoro-1-methyl-6,7-dihydro-5H-cyclopenta[c]pyridin-6-yl)methyl-methylamino]ethyl]-2-oxo-1,3-oxazolidin-3-yl]-4H-pyrazino[2,3-b][1,4]oxazin-3-one]
